Source: patent US20120270875A1, “PYRIMIDINE AMIDE COMPOUNDS” (priority 2011, published 2012)

Tests used:
[1] = tested on: PBMC's from two healthy donors; test: Human Mixed Lymphocyte Reaction (hMLR); format: cell-based; conditions: 3H-thymidine incorporation, read-out: human MLR (IC50)
Procedure: Human Mixed Lymphocyte Reaction (hMLR)
PBMC's were isolated from two healthy donors by Ficoll gradient. Cells were resuspended with 4 mL assay media and counted with a Coulter Counter. Both cell populations were resuspended to 1×10^7/mL. Stimulator cells were irradiated for 2.5 min (2000 RAD) in cesium irradiator. 5×10^5 cells were added to duplicate wells of the plate. Included were quadruplicate wells receiving responder cells alone and stimulator cells alone. The compound to be tested was solubilized in DMSO. A series of 1:3 dilutions were performed to achieve a concentration range of 0.45 nM-3 uM. One hundred μl of the solutions to be tested were added to the cell plate (100 μl of 2% DMSO/media added to control wells). Plates were then incubated for 2.5 days at 37° C. with 5% CO2. Plates were pulsed with 50 μl/well 3H-thymidine at 0.5 uCi/well then incubated for 6 hours at 37° C. with 5% CO2. Cells were harvested using Cell Harvester (TomTec) and counted on TopCount (Perkin Elmer).

Mac-1/ICAM-1 = Mac-1/ICAM-1 (Homo sapiens, UniProt P05107+P11215); test: Mac-1/ICAM-1 ELISA; conditions: Mac-1 coated plates, 5dICAM-Fc binding
Mac-1/ICAM-1, sequence (P05107 23-769, other chains not shown): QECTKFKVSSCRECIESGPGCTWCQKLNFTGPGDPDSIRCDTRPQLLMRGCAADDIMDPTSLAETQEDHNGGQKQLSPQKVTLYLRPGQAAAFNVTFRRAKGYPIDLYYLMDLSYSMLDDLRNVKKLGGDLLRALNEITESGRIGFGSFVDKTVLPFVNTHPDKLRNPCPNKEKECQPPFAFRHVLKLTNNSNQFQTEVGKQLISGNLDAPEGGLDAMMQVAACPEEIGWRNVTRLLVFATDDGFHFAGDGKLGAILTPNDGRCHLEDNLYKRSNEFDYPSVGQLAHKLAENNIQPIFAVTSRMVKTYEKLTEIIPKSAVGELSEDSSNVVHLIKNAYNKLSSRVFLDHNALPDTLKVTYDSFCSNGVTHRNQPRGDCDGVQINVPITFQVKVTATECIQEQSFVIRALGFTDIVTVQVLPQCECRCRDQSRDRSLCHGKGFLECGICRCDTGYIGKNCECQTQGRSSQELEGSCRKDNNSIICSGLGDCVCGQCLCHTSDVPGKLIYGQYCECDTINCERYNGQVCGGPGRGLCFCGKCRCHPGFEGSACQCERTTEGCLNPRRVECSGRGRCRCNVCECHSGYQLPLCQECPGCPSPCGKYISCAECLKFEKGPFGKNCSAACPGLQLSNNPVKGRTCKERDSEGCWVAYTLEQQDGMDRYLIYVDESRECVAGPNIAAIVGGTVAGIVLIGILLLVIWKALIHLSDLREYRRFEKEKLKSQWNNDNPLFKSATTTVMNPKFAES
Procedure: (§1) sLFA-1/ICAM-1 ELISA and Mac-1/ICAM-1 ELISA
(§2) Plates were coated with either 50 μl/well of 2.0 ug/ml solution of sLFA-1 or Mac-1 receptor in divalent cation buffer (1 mM MnCl2, 0.14M NaCl, 20 mM HEPES pH 7.2) at 4° C. overnight. Two hundred fifty μl of blocking buffer (1% BSA in divalent cation buffer) was added to each well 1 hour at 37° C. Plates were washed 3 times with wash buffer (TBS/0.05% Tween-20/1 mM MnCl2). The compound to be tested was solubilized in DMSO. A series of 1:3 dilutions were performed to achieve a concentration range of 0.45 nM-3 uM. Fifty μl of binding buffer (0.5% BSA in divalent cation buffer)/1% DMSO and 50 μl of the solutions to be tested were added to the appropriate wells and incubated for 1 hour. Fifty μl of 5dICAM-Fc (27 ng/ml) was added to the appropriate wells and 50 μl binding buffer was added to non-specific binding wells and incubated for 2 hours and washed. One hundred μl of 1:4000 HRP-goat anti-huIgG was added to each well and incubated for 1 hour and washed. One hundred μl of 1:1 TMB solution was added to each well and developed for 20 min at room temperature. Color development was stopped by adding 100 μl H3PO4 to each well. Absorbance was measured at 450 nm.

sLFA-1/ICAM-1 = sLFA-1/ICAM-1 (Homo sapiens, UniProt P05107+P20701, DEL701-769); test: sLFA-1/ICAM-1 ELISA; format: binding; conditions: sLFA-1 coated plates, 5dICAM-Fc binding, ELISA; read-out: LFA-1/ICAM (IC50)
sLFA-1/ICAM-1, sequence (P20701 26-1090 limits assumed, stated change not applied): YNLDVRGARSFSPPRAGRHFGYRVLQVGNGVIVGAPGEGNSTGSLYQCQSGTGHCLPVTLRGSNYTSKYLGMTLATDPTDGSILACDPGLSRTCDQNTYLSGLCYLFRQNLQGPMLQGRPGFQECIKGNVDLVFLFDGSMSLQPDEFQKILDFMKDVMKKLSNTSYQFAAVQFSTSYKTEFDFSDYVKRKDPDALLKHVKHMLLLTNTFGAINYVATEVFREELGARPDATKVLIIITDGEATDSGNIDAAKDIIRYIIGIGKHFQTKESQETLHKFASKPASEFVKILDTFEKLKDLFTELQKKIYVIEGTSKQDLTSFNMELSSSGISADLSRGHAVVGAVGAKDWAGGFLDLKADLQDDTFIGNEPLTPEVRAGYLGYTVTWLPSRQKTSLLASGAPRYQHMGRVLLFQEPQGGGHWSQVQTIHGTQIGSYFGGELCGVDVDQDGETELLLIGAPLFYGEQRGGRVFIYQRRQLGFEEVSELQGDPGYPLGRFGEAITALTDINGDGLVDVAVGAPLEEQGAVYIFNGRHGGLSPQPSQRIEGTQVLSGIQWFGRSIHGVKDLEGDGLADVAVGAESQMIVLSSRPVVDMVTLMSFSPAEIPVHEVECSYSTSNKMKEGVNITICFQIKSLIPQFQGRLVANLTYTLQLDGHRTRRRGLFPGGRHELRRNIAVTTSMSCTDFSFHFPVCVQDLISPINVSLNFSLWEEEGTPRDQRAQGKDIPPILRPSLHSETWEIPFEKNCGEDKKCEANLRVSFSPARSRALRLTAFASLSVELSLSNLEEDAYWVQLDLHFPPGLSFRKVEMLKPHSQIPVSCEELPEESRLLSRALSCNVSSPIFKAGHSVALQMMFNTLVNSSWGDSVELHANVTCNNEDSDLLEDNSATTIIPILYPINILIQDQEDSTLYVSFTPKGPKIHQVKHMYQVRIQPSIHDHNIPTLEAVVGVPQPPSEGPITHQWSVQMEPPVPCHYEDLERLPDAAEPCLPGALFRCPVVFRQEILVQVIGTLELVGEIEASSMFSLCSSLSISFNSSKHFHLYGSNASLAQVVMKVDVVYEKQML
sLFA-1/ICAM-1, sequence (P05107 23-700 limits assumed, stated change not applied): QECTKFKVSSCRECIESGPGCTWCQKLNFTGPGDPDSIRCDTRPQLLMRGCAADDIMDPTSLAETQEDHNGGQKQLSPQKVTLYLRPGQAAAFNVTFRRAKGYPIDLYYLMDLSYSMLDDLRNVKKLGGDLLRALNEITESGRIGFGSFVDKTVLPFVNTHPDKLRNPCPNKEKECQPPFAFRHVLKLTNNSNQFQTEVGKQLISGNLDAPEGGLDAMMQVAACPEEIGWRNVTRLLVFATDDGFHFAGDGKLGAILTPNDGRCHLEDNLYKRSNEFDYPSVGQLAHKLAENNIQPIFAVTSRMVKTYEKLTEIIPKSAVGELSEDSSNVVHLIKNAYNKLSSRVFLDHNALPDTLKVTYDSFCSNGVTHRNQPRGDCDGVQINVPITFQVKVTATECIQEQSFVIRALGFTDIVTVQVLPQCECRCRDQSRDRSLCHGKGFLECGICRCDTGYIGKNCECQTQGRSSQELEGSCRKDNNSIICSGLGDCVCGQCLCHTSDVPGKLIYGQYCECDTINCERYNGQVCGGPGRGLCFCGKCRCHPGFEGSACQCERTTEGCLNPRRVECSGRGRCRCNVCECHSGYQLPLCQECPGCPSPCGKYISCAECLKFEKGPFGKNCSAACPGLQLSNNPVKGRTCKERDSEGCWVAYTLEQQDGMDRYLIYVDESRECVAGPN
Procedure: as §1, §2

Row | IC50 (Mac-1/ICAM-1) [nM] | IC50 (sLFA-1/ICAM-1) [nM] | SMILES | IC50 [1] [nM]
1 | 20 | 21 | Cc1nc(NCCCc2cccc3[nH]ncc23)nc(C)c1C(=O)N[C@@H](CNC(=O)c1cccs1)C(=O)O [Example 6, (S)-2-({2-[3-(1H-indazol-4-yl)-propylamino]-4,6-dimethyl-pyrimidine-5-carbonyl}-amino)3-[(thiophene-2-carbonyl)-amino]-propionic acid] | 374
2 | 120 | 40 | Cc1nc(NCCCc2cccc(O)c2)nc(C)c1C(=O)N[C@@H](CNC(=O)c1cccs1)C(=O)O [Example 8, (S)-2-({2-[3-(3-hydroxy-phenyl)-propylamino]-4,6-dimethyl-pyrimidine-5-carbonyl}-amino)3-[(thiophene-2-carbonyl)-amino]-propionic acid] | 678
3 | 55 | 41 | Cc1nc(NCC#Cc2cccc(O)c2)nc(C)c1C(=O)N[C@@H](CNC(=O)c1cccs1)C(=O)O [Example 61, (S)-2-({2-[3-(3-Hydroxy-phenyl)-prop-2-ynylamino]-4,6-dimethyl-pyrimidine-5-carbonyl}-amino)-3-[(thiophene-2-carbonyl)-amino]-propionic acid] | 1180
4 | 45 | 80 | Cc1nc(NCC#Cc2cccc3[nH]ncc23)nc(C)c1C(=O)N[C@@H](CNC(=O)c1cccs1)C(=O)O [Example 62, (S)-2-({2-[3-(1H-Indazol-4-yl)-prop-2-ynylamino]-4,6-dimethyl-pyrimidine-5-carbonyl}-amino)-3-[(thiophene-2-carbonyl)-amino]-propionic acid] | 3810
5 | 23 | 35 | Cc1nc(NCCCc2cc(O)cc(F)c2)nc(C)c1C(=O)N[C@@H](CNC(=O)c1cccs1)C(=O)O [Example 64, (S)-2-({2-[3-(3-Fluoro-5-hydroxy-phenyl)-propylamino]-4,6-dimethyl-pyrimidine-5-carbonyl}-amino)-3-[(thiophene-2-carbonyl)-amino]-propionic acid] | 1350
6 | 39 | 12 | Cc1nc(NCCCc2cccc(O)c2)nc(C)c1C(=O)N[C@@H](CNC(=O)c1cc(O)cc(O)c1)C(=O)O [Example 81] | 73
7 | 25 | 28 | Cc1nc(NCCCc2cccc(O)c2)nc(C)c1C(=O)N[C@@H](CNC(=O)c1cccc(O)c1)C(=O)O [Example 83] | 138
